{"source": "patent US20220291203A1", "about": "“METHODS OF MEASURING CELL-MEDIATED KILLING BY EFFECTORS” (IMMUNOWAKE INC., priority 2019, published 2022)", "system": "dual reporter MDA-MB-231 cells (MDA-MB-231 WT)", "test": "T cell killing in 3D tumor-fibroblast spheroids (Example 17)", "type": "cell-based, human", "details": "nivolumab 0.5 μg/mL; 3D spheroids, 3E:1T", "excerpt": "Dual reporter MDA-MB-231 cell line with PD-L1 knockout (KO) (hereinafter referred to as “dual reporter MDA-MB-231 PD-L1 KO cells” or “MDA-MB-231 KO”) was constructed by co-transducing the Tet-on snLuc-GFP construct as constructed in Example 1 and CRISPR/Cas9 constructs targeting PD-L1. 3D tumor-fibroblast spheroids were generated by co-culturing 10,000 human dermal fibroblasts and 10,000 dual reporter MDA-MB-231 cells (“MDA-MB-231 WT”) or dual reporter MDA-MB-231 PD-L1 KO cells in ultra-low attachment plates for 3 days. After spheroid formation, 30,000 unstimulated primary T cells (3E:1T) were added in the presence of increasing concentrations of trispecific anti-HER2/anti-CD47/anti-CD3 antibody (serially diluted 5-fold, 1000 ng/mL-0.032 ng/mL), and without or with anti-PD-1 antibody nivolumab (0.5 μg/mL).\nThe trispecific anti-HER2/anti-CD47/anti-CD3 antibody (made in house) has no Fc function due to LALA mutations and cannot mediate ADCC. The cell-killing reaction was incubated for 48 hours. […] Cell culture media was taken one day post-induction with doxycycline (t=72 hr), and luminescence was measured on a GloMax Discover Microplate Reader. Percent cell survival was defined as luminescence readout at various antibody concentrations relative to the average readout with no antibody. […]", "note": "Entries after “also recorded” stand apart in the source; their conditions may differ."}
{"substance": "nivolumab", "values": [{"measurement": "effect of nivolumab on trispecific antibody-mediated T cell killing", "result": "rescued T cell killing on dual reporter MDA-MB-231 cells; also recorded: could rescue the immunosuppression on cytotoxic T cells"}]}
